Results taken from patent US20070053994A1, “Anti-inflammatory treatment” (priority 2003, published 2007).

Test system: severe psoriasis (person)
Assay: Case report: treatment of severe psoriasis of hands, arms and feet
Assay type: in vivo, human
Conditions: effects did not last following long term treatment

`C[C@]12CCC(=O)C=C1CC[C@@H]1[C@@H]2C(=O)C[C@@]2(C)[C@H]1CC[C@]2(O)C(=O)CO` [cortisone] was tested, and the “effect of earlier treatment on psoriasis (patient history)” value was “some effects”.
